Legend:
[1] = test system: melasma; details: cited from earlier work
[2] = cited from earlier work
[3] = Maximum concentration of azelaic acid solubilized with heat in a given solvent without precipitation upon cooling; assay type: physicochemical; details: in dimethyl isosorbide, relative to the approximately 10 to 12% of the diols
Text: In order to determine a desirable ratio of azelaic acid to urea for certain compositions of this disclosure, the maximum concentration for azelaic acid that can be solubilized is first determined, with heat exposure, in a given solvent without precipitation upon cooling.

[4] = Ability of polyol solvents to solubilize azelaic acid; assay type: physicochemical
Protocol: A series of experiments were performed to assess and optimize the components of the subject formulations.

[5] = Solubility of optional additional components in non-aqueous solvents; assay type: physicochemical
Text: Additional ingredients were chosen for their compatibility with (e.g., miscibility in) 1,3 propanediol, 1,2 propanediol, and 1,3 butanediol.

[6] = test system: transepidermal water loss; details: in vivo; cited from earlier work
[7] = test system: erythema (skin redness); details: concentrations of 0.2%; cited from earlier work

In the case of `O=C(O)CCCCCCCC(=O)O` [azelaic acid], the “treatment differences in overall rating, reduction in lesion size and pigmentary intensity” value ([1]; 20% azelaic acid compared to 4% hydroquinone) is given as “no significant treatment differences”, the “allergic sensitization or exogenous ochronosis” value ([1]; 20% azelaic acid) is given as “no allergic sensitization or exogenous ochronosis observed” and the “good or excellent results in lightening melasma” value ([1]; 20% azelaic acid) is given as 65%. For the same compound, the “solubility in cosmetic oils” value ([2]; cosmetic oils) was “little or no solubility”, the “stability of azelaic acid in alcohol” value ([2]; ethyl alcohol, normal temperatures) was “unstable” and the “maximum azelaic acid in a water and azelaic acid solution” value ([2]; water) was “about 0.24 % by weight (w/w)”. For the same compound, the “maximum concentration for azelaic acid that can be solubilized” value [3] was “significantly lower”, the “ability to solubilize azelaic acid” value ([4]; solvent 1,2-hexanediol used alone) was “moderate” and the “ability to solubilize azelaic acid” value ([4]; solvent 1,2-propanediol (propylene glycol)) was “moderate”. For the same compound, the “ability to solubilize azelaic acid” value ([4]; solvent 1,3-butanediol (butylene glycol)) was “moderate”, the “ability to solubilize azelaic acid” value ([4]; solvent 1,3-propanediol) was “moderate” and the “ability to solubilize azelaic acid” value ([4]; solvent 1,5-pentanediol (pentylene glycol)) was “moderate”. The “ability to solubilize azelaic acid” value ([4]; solvent dimethyl isosorbide) was “very limited” and the “ability to solubilize azelaic acid” value ([4]; solvents glycerin and diglycerin) was “moderate and low”.
With `COc1cc(CC(C(C)=O)C(C)=O)ccc1O` [Acetyl zingerone] the solubility ([5]; at 0.5-1% in 1,3 propanediol, 1,2 propanediol and 1,3 butanediol) was “readily soluble”.
For `CC(C)(CO)[C@@H](O)C(=O)NCCCO` [Panthenol], the “concentration at which inhibition of transepidermal water loss is apparent” value [6] is listed as no less than 1%.
In the case of `CC1(C)[C@@H](O[C@H]2O[C@H](C(=O)O)[C@@H](O)[C@H](O)[C@H]2O[C@@H]2O[C@H](C(=O)O)[C@@H](O)[C@H](O)[C@H]2O)CC[C@]2(C)[C@H]3C(=O)C=C4[C@@H]5C[C@@](C)(C(=O)O)CC[C@]5(C)CC[C@@]4(C)[C@]3(C)CC[C@@H]12` [glycyrrhizic acid], the solubility ([5]; in 1,3-propanediol) is reported as “shows solubility”.
For madecassoside, the solubility ([5]; at a concentration of 0.2% in 1,3 propanediol, 1,2 propanediol and 1,3 butanediol) is listed as “soluble” and the “ability to reduce erythema (skin redness)” value [7] is listed as “desirable ability to reduce erythema”.

From patent US20230346661A1, “Anhydrous Azelaic Acid Topical Formulations” (Baek Clinical Inc., priority 2020, published 2023)
